According to patent publication US8735398B2 (Bristol-Myers Squibb Company, priority 2009, dated 2014):

Test system: HCV 1b genotype
Experiment: HCV replicon assay (HCV-neo replicon cells, wild-type)
Format: cell-based, Hepatitis C virus
Settings: Hepatitis C virus, HCV 1b genotype replicon; class symbol; read-out: EC50 Range against HCV 1b
Outline: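 HCV-neo replicon cells (wild-type) and replicon cells carrying NS5A resistance substitutions were treated with compounds; assay per O'Boyle et al. 2005, with luciferase-reporter read-out variants also used.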

Compound	EC50
C[C@H](NC(=O)[C@@](C)(O)c1ccccc1)C(=O)Nc1ccc(-c2cc(-c3ccc(NC(=O)[C@H](C)NC(=O)[C@@](C)(O)c4ccccc4)cc3)[nH]n2)cc1 [OL-45, (2S,2′S)-N,N′-(1H-pyrazole-3,5-diylbis(4,1-phenyleneimino((2S)-1-oxo-1,2-propanediyl)))bis(2-hydroxy-2-phenylpropanamide)]	< 4.57 nM
C[C@@H](C(=O)N1CCC[C@H]1C(=O)Nc1ccc(-c2ccc(-c3ccc(NC(=O)[C@@H]4CCCN4C(=O)[C@H](C)c4ccccc4)cc3)o2)cc1)c1ccccc1 [JG-53, (2S,2′S)-N,N′-(2,5-furandiyldi-4,1-phenylene)bis(1-((2R)-2-phenylpropanoyl)-2-pyrrolidinecarboxamide)]	4.57 to 99 nM
CO[C@H](C(=O)N1CCC[C@H]1C(=O)Nc1ccc(-c2cnc(-c3ccc(NC(=O)[C@@H]4CCCN4C(=O)[C@@H](OC)c4ccccc4)cc3)o2)cc1)c1ccccc1 [JG-19, (2S,2′S)-N,N′-(1,3-oxazole-2,5-diyldi-4,1-phenylene)bis(1-((2S)-2-methoxy-2-phenylacetyl)-2-pyrrolidinecarboxamide)]	4.57 to 99 nM
CSCC[C@H](NC(=O)Cc1ccccc1)C(=O)Nc1ccc(-c2cnc(-c3ccc(NC(=O)[C@H](CCSC)NC(=O)Cc4ccccc4)cc3)o2)cc1 [JG-13, (2S,2′S)-N,N′-(1,3-oxazole-2,5-diyldi-4,1-phenylene)bis(4-(methylsulfanyl)-2-((phenylacetyl)amino)butanamide)]	100 to 999 nM
CC(=O)N1CCC[C@H]1C(=O)Nc1ccc(-c2nc(-c3ccc(NC(=O)[C@@H]4C=CCN4C(=O)Cc4cccs4)cc3)cs2)cc1 [Example D-48, (2S)-N-[4-[2-[4-[[[(2S)-1-acetyl-2-pyrrolidinyl]carbonyl]amino]phenyl]-4-thiazolyl]phenyl]-2,5-dihydro-1-(2-thienylacetyl)-1H-pyrrole-2-carboxamide]	100 to 999 nM
CO[C@H](C(=O)N1CCC[C@H]1C(=O)Nc1ccc(-c2nc[nH]c2-c2ccc(NC(=O)[C@@H]3CCCN3C(=O)[C@@H](OC)c3ccccc3)cc2)cc1)c1ccccc1 [JG-45, (2S,2′S)-N,N′-(1H-imidazole-4,5-diyldi-4,1-phenylene)bis(1-((2S)-2-methoxy-2-phenylacetyl)-2-pyrrolidinecarboxamide)]	4.57 to 99 nM
C[C@H](NC(=O)[C@@](C)(O)c1ccccc1)C(=O)Nc1ccc(-c2cnc(-c3ccc(NC(=O)[C@H](C)NC(=O)[C@@](C)(O)c4ccccc4)cc3)o2)cc1 [OL-56, ((2S,2′S)-N,N′-(1,3-oxazole-2,5-diylbis(4,1-phenyleneimino((2S)-1-oxo-1,2-propanediyl)))bis(2-hydroxy-2-phenylpropanamide))]	< 4.57 nM

Same assay, conditions: Hepatitis C virus, HCV 1b genotype replicon; class symbols; read-out: EC50 Range against HCV 1b

Compound	EC50
O=C(Nc1ccc(-c2cnc(-c3ccc(NC(=O)[C@@H]4C[C@@H](O)CN4C(=O)C4CC4)cc3)o2)cc1)[C@@H]1C[C@@H](O)CN1C(=O)C1CC1 [XY-57, (2S,4R,2′S,4′R)-N,N′-(1,3-oxazole-2,5-diyldi-4,1-phenylene)bis(1-(cyclopropylcarbonyl)-4-hydroxy-2-pyrrolidinecarboxamide)]	1000 to 10000 nM
COC(C(=O)N1C[C@H](O)C[C@H]1C(=O)Nc1ccc(-c2cnc(-c3ccc(NC(=O)[C@@H]4C[C@@H](O)CN4C(=O)C(OC)c4ccccc4)cc3)o2)cc1)c1ccccc1 (stereo partly drawn) [XY-49, (2S,4R,2′S,4′R)-N,N′-(1,3-oxazole-2,5-diyldi-4,1-phenylene)bis(4-hydroxy-1-(methoxy(phenyl)acetyl)-2-pyrrolidinecarboxamide)]	4.57 to 99 nM
CC(C)(C)O[C@@H]1C[C@@H](C(=O)Nc2ccc(-c3cnc(-c4ccc(NC(=O)[C@@H]5C[C@@H](OC(C)(C)C)CN5C(=O)c5cccs5)cc4)o3)cc2)N(C(=O)c2cccs2)C1 [XY-76, (2S,4R,2′S,4′R)-N,N′-(1,3-oxazole-2,5-diyldi-4,1-phenylene)bis(4-tert-butoxy-1-(2-thienylcarbonyl)-2-pyrrolidinecarboxamide)]	1000 to 10000 nM

Same assay, conditions: Hepatitis C virus, HCV 1b genotype replicon; read-out: EC50 1b

Compound	EC50
CO[C@H](C(=O)N1CCC[C@H]1C(=O)Nc1ccc(-c2cnc(-c3ccc(NC(=O)[C@@H]4CCCN4C(=O)[C@@H](OC)c4ccccc4)cc3)o2)cc1)c1ccccc1 [JG-19, (2S,2′S)-N,N′-(1,3-oxazole-2,5-diyldi-4,1-phenylene)bis(1-((2S)-2-methoxy-2-phenylacetyl)-2-pyrrolidinecarboxamide)]	9 nM
